The subject of the data set is CCRIS mutagenicity, Ames/micronucleus/aberration tests. Nature of the data set: CCRIS mutagenicity studies.

Calls of active or inactive are those of the source. No rule for the calls is given here.

For `C1N2CN3CN1CN(C2)C3`, the mutagenic call is, setting by setting: (End Point: In vitro chromosomal aberrations, Test System: Chinese hamster lung (CHL/IU) cells, Metabolic Activation: Rat, Liver, S9, Phenobarbital and 5,6-benzoflavone) “inactive; negative”; (Test System: AMES SALMONELLA TYPHIMURIUM, Strain/Indicator: TA97, Metabolic Activation: HAMSTER, LIVER, S-9, AROCLOR 1254 (5 OR 30%), Method: PREINCUBATION) “inactive; negative”; (Test System: AMES SALMONELLA TYPHIMURIUM, Strain/Indicator: TA97, Metabolic Activation: HAMSTER, LIVER, S-9, AROCLOR 1254 (10%), Method: PREINCUBATION) “inactive; negative”; (Test System: AMES SALMONELLA TYPHIMURIUM, Strain/Indicator: TA97, Metabolic Activation: NONE, Method: PREINCUBATION) “inactive; negative”; (Test System: AMES SALMONELLA TYPHIMURIUM, Strain/Indicator: TA97, Metabolic Activation: RAT, LIVER, S-9, AROCLOR 1254 (10%), Method: PREINCUBATION) “inactive; negative”; (Test System: AMES SALMONELLA TYPHIMURIUM, Strain/Indicator: TA97, Metabolic Activation: RAT, LIVER, S-9, AROCLOR 1254 (30%), Method: PREINCUBATION) “inactive; negative”. Besides, the mutagenic call was “inactive; negative” (Test System: AMES SALMONELLA TYPHIMURIUM, Strain/Indicator: TA98, Metabolic Activation: HAMSTER, LIVER, S-9, AROCLOR 1254 (10 OR 30%), Method: PREINCUBATION); “inactive; negative” (Test System: AMES SALMONELLA TYPHIMURIUM, Strain/Indicator: TA98, Metabolic Activation: RAT, LIVER, S-9, AROCLOR 1254 (10 OR 30%), Method: PREINCUBATION); “active; positive” (Test System: AMES SALMONELLA TYPHIMURIUM, Strain/Indicator: TA98, Metabolic Activation: RAT, LIVER, S-9, KC 500, Method: PREINCUBATION); “inactive; negative” (Test System: AMES SALMONELLA TYPHIMURIUM, Strain/Indicator: TA98, Metabolic Activation: RAT, LIVER, S-9, PCB, Method: PREINCUBATION); “inactive; negative” (Test System: AMES SALMONELLA TYPHIMURIUM, Strain/Indicator: TA100, Metabolic Activation: HAMSTER, LIVER, S-9, AROCLOR 1254 (10 OR 30%), Method: PREINCUBATION); “inactive; negative” (Test System: AMES SALMONELLA TYPHIMURIUM, Strain/Indicator: TA100, Metabolic Activation: NONE, Method: PREINCUBATION). The mutagenic call is “inactive; negative” (Test System: AMES SALMONELLA TYPHIMURIUM, Strain/Indicator: TA100, Metabolic Activation: RAT, LIVER, S-9, AROCLOR 1254 (10 OR 30%), Method: PREINCUBATION); “active; positive” (Test System: AMES SALMONELLA TYPHIMURIUM, Strain/Indicator: TA100, Metabolic Activation: RAT, LIVER, S-9, KC 500, Method: PREINCUBATION); “inactive; negative” (Test System: AMES SALMONELLA TYPHIMURIUM, Strain/Indicator: TA100, Metabolic Activation: RAT, LIVER, S-9, PCB, Method: PREINCUBATION); “inactive; negative” (Test System: AMES SALMONELLA TYPHIMURIUM, Strain/Indicator: TA1535, Metabolic Activation: HAMSTER, LIVER, S-9, AROCLOR 1254 (10 OR 30%), Method: PREINCUBATION); “inactive; negative” (Test System: AMES SALMONELLA TYPHIMURIUM, Strain/Indicator: TA1535, Metabolic Activation: NONE, Method: PREINCUBATION); “inactive; negative” (Test System: AMES SALMONELLA TYPHIMURIUM, Strain/Indicator: TA1535, Metabolic Activation: RAT, LIVER, S-9, AROCLOR 1254 (10 OR 30%), Method: PREINCUBATION). The mutagenic call by setting is: (Test System: AMES SALMONELLA TYPHIMURIUM, Strain/Indicator: TA1535, Metabolic Activation: RAT, LIVER, S-9, KC 500, Method: PREINCUBATION) “inactive; negative”; (Test System: AMES SALMONELLA TYPHIMURIUM, Strain/Indicator: TA1537, Metabolic Activation: HAMSTER, LIVER, S-9, AROCLOR 1254 (10%), Method: PREINCUBATION) “inactive; negative”; (Test System: AMES SALMONELLA TYPHIMURIUM, Strain/Indicator: TA1537, Metabolic Activation: NONE, Method: PREINCUBATION) “inactive; negative”; (Test System: AMES SALMONELLA TYPHIMURIUM, Strain/Indicator: TA1537, Metabolic Activation: RAT, LIVER, S-9, AROCLOR 1254 (10%), Method: PREINCUBATION) “inactive; negative”; (Test System: AMES SALMONELLA TYPHIMURIUM, Strain/Indicator: TA1537, Metabolic Activation: RAT, LIVER, S-9, KC 500, Method: PREINCUBATION) “inactive; negative”; (Test System: AMES SALMONELLA TYPHIMURIUM, Strain/Indicator: TA1538, Metabolic Activation: HAMSTER, LIVER, S-9, AROCLOR 1254 (10 OR 30%), Method: PREINCUBATION) “inactive; negative”. The mutagenic call by setting is: (Test System: AMES SALMONELLA TYPHIMURIUM, Strain/Indicator: TA1538, Metabolic Activation: NONE, Method: PREINCUBATION) “inactive; negative”; (Test System: AMES SALMONELLA TYPHIMURIUM, Strain/Indicator: TA1538, Metabolic Activation: RAT, LIVER, S-9, AROCLOR 1254 (10 OR 30%), Method: PREINCUBATION) “inactive; negative”; (Test System: AMES SALMONELLA TYPHIMURIUM, Strain/Indicator: TA1538, Metabolic Activation: RAT, LIVER, S-9, KC 500, Method: PREINCUBATION) “inactive; negative”; (Test System: Ames Salmonella typhimurium, Strain/Indicator: TA98, Metabolic Activation: None, Method: Preincubation) “inactive; negative”; (Test System: Ames Salmonella typhimurium, Strain/Indicator: TA98, Metabolic Activation: Rat, Liver, S9, Sodium phenobarbital and 5,6-benzoflavone (10%), Method: Preincubation) “inactive; negative”; (Test System: Ames Salmonella typhimurium, Strain/Indicator: TA100, Metabolic Activation: None, Method: Preincubation) “inactive; negative”. Moreover, the mutagenic call is, setting by setting: (Test System: Ames Salmonella typhimurium, Strain/Indicator: TA100, Metabolic Activation: Rat, Liver, S9, Sodium phenobarbital and 5,6-benzoflavone (10%), Method: Preincubation) “inactive; negative”; (Test System: Ames Salmonella typhimurium, Strain/Indicator: TA1535, Metabolic Activation: None, Method: Preincubation) “inactive; negative”; (Test System: Ames Salmonella typhimurium, Strain/Indicator: TA1535, Metabolic Activation: Rat, Liver, S9, Sodium phenobarbital and 5,6-benzoflavone (10%), Method: Preincubation) “inactive; negative”; (Test System: Ames Salmonella typhimurium, Strain/Indicator: TA1537, Metabolic Activation: None, Method: Preincubation) “inactive; negative”; (Test System: Ames Salmonella typhimurium, Strain/Indicator: TA1537, Metabolic Activation: Rat, Liver, S9, Sodium phenobarbital and 5,6-benzoflavone (10%), Method: Preincubation) “inactive; negative”; (Test System: E. COLI, Strain/Indicator: WP2 UVRA, Metabolic Activation: NONE, Method: PREINCUBATION) “inactive; negative”. Besides, the mutagenic call reads like this: (Test System: E. COLI, Strain/Indicator: WP2 UVRA, Metabolic Activation: RAT, LIVER, S-9, KC 500, Method: PREINCUBATION) “inactive; negative”; (Test System: E. coli, Strain/Indicator: WP2uvrA/pKM101, Metabolic Activation: None, Method: Preincubation) “inactive; negative”; (Test System: E. coli, Strain/Indicator: WP2uvrA/pKM101, Metabolic Activation: Rat, Liver, S9, Sodium phenobarbital and 5,6-benzoflavone (10%), Method: Preincubation) “inactive; negative”.

On to `O=C1OC[C@@H](Cc2cccc(O)c2)[C@@H]1Cc1cccc(O)c1`, for which the mutagenic call (Test System: CHINESE HAMSTER V79 CELLS, Strain/Indicator: V79 CELLS (HPRT)/6-THIOGUANINE, Metabolic Activation: NONE, Method: SUSPENSION/PLATE) was “inactive; negative” and the mutagenic call (Test System: CHINESE HAMSTER V-79, Strain/Indicator: V-79 (HPRT)/6-THIOGUANINE, Metabolic Activation: NONE) was “inactive; negative”.

In the case of `O[As](O)O`, the mutagenic call (End Point: IN VIVO MICRONUCLEUS, Test System: BONE MARROW POLYCHROMATIC ERYTHROCYTES, Species: MOUSE, Strain/Sex: C57BL/6/MALE, Route: IP INJECTION) was “active; positive”.

Source of the values: PubChem BioAssay AID1259407 (Chemical Carcinogenesis Research Information System (CCRIS), 2018).
